In patent US7101876B2, “Substituted benzoxazines as integrin antagonists” (Pharmacia Corporation, priority 2001, dated 2006):

Assays:
human αvβ3 integrin = target: T1, human αvβ3 integrin (Homo sapiens, UniProt P05106+P06756); assay: αvβ3-vitronectin binding assay (solid phase)
T1 construct: Human vitronectin receptor (αvβ3) was purified from human placenta; from tissue; host or cells: human placenta
Method: (§1) A solid phase assay for the study of αvβ3-vitronectin binding was set up on the basis of already published methods (WONG et al., Molecular Pharmacology 50: 529–537, 1996; Brooks et al., Cell 85: 683–693, 1996). The human αvβ3 integrin was diluted into coating buffer (CB) containing 150 mM NaCl, 1 mM CaCl2, 1 mM MgCl2, 1 mM MnCl2, 20 mM TRIS, pH 7.4 at a concentration of 1.5 μg/ml. Into 96-well plates, 50 μl of the diluted integrin were added and allowed to bind to the plate walls overnight at 4° C. Next day, the assay plates were emptied and 100 μl of blocking buffer (CB buffer with 3% BSA) were added to each well for 45 min at 37° C. […] Then, the plates were washed as described and 50 μl of ready to use Turbo-TMB substrate for peroxydase were added to each well. After 30 minutes incubation at room temperature, the color development was stopped with 50 μl sulphuric acid 0.38 M and the plates were read at a wavelength of 450 nm with a Packard plate reader. The values obtained were analyzed by four parameters curve fit in the computer program GraphPad Prism, after normalization by a maximum binding control (Bmax) detected in wells where no competitor was added, and a minimum binding control (NSB) detected in wells where no integrin was coated. […]

αIIbβ3 integrin = target: T2, αIIbβ3 integrin (Homo sapiens, UniProt P05106+P08514); assay: αIIbβ3-fibrinogen binding assay (solid phase); details: inhibition of biotinylated fibrinogen (10 nM) binding to coated integrin; read-out: αIIbβ3 (IC50 μmol)
T2 construct: Human fibrinogen receptor (αIIbβ3) was purified from human platelets; from tissue; host or cells: human platelets
Method: as §1, with “of αIIbβ3-fibrinogen” for “of αvβ3-vitronectin”, “up according to” for “up on”, “the method described for αvβ3. αIIbβ3” for “the basis of already published methods (WONG et al., Molecular Pharmacology 50: 529–537, 1996; Brooks et al., Cell 85: 683–693, 1996). The human αvβ3”, “mM Cacl2,” for “mM CaCl2,”, “of 3” for “of 1.5”, “fit with” for “fit in”

T1 sequence (P06756 31-889 limits assumed): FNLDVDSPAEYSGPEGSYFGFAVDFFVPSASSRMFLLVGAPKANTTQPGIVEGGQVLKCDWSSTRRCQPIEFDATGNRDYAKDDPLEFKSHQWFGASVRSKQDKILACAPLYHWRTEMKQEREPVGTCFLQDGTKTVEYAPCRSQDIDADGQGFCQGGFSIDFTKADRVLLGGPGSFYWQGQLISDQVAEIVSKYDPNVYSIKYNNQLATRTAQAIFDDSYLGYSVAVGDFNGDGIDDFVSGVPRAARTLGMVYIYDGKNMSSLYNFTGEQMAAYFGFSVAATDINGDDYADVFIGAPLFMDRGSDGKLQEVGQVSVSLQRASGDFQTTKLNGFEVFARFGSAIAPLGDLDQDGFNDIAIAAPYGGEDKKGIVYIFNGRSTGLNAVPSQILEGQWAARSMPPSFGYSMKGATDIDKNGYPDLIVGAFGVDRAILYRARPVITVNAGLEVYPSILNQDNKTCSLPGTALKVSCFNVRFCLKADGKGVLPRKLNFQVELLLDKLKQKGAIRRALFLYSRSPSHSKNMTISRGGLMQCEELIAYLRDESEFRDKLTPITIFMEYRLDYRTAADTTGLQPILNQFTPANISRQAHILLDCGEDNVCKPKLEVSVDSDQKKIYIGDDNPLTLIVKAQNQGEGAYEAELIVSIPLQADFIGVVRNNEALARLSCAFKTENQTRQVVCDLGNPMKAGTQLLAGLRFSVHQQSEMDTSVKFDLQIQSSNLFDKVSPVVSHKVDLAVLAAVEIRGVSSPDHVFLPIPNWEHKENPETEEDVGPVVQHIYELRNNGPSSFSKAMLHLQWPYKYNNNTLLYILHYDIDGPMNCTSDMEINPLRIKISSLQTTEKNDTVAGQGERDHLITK
T1 sequence (P06756 891-1048 partner limits assumed): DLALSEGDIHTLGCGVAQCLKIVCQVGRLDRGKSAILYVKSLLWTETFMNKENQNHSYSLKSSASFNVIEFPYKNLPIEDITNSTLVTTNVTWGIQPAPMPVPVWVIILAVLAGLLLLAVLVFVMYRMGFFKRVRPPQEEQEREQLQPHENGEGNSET
T1 sequence (P05106 27-788): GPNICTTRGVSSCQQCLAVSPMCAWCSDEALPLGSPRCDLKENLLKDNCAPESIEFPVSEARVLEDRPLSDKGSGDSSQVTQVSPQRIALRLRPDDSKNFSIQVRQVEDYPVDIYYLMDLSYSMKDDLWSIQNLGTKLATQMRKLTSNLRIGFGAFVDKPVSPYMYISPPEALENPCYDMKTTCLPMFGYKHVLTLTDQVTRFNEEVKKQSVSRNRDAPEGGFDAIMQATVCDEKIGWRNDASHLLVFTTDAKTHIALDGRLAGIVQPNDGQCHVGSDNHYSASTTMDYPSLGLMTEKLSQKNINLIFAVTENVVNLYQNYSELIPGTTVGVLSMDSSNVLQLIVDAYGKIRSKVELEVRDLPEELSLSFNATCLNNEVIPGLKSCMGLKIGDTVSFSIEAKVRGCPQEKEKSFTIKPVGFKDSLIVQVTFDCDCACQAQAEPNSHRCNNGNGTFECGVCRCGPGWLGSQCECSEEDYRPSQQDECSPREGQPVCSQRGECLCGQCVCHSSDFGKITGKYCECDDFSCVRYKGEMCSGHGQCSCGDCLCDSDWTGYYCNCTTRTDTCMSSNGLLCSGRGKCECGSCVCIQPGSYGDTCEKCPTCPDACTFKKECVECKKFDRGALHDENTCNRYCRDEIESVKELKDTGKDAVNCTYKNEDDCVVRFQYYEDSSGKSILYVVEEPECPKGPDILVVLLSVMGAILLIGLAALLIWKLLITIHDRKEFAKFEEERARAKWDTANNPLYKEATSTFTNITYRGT
T2 sequence (P08514 32-887 limits assumed): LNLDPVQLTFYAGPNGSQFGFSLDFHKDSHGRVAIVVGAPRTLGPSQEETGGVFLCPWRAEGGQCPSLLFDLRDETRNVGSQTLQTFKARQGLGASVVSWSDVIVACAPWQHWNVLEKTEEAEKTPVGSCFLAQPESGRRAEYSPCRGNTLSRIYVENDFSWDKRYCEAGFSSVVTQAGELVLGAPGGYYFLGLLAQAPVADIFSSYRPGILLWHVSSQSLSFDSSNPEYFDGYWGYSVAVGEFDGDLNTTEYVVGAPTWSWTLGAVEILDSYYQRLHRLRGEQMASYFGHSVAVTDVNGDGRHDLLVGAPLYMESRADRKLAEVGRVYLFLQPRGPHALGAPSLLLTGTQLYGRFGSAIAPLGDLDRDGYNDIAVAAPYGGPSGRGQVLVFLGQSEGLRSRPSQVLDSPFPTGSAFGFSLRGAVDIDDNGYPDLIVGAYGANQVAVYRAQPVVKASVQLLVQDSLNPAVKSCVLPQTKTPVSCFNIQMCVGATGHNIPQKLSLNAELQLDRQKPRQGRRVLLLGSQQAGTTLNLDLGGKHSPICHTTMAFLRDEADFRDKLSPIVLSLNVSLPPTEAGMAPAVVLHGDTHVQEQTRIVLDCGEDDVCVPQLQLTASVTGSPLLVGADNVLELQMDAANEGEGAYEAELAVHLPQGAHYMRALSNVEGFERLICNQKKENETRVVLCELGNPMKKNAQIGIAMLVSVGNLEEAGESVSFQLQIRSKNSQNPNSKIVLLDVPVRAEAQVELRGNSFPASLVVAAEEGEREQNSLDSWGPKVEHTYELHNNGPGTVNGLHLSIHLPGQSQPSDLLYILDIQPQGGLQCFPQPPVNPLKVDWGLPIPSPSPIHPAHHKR
T2 sequence (P08514 891-1039 partner limits assumed): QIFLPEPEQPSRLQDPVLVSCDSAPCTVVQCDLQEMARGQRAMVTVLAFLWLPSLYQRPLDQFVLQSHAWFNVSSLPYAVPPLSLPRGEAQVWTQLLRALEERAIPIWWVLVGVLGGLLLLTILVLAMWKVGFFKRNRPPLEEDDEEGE
T2 sequence (P05106 27-788): as the sequence (P05106 27-788) above

IC50 (human αvβ3 integrin; inhibition of biotinylated vitronectin (5 nM) binding to coated integrin, read-out: αvβ3 (IC50 μmol)): 11 ± 4 nM
ratio between αIIbβ3 and αvβ3 inhibiting activity (human αvβ3 integrin; selectivity, αIIbβ3 IC50 / αvβ3 IC50): about 1,000
IC50 (αIIbβ3 integrin): 18 µM
Compound: O=C(O)CC(Nc1ccc2c(c1)OCC(=O)N2CCCNc1ccccn1)c1ccccc1 (stereo not drawn) [3-{4-[3-(N-(2-pyridinyl)amino)propyl]-3-oxo-3,4-dihydro-2H-1,4-benzoxazin-7-yl)amino}-3-phenylpropanoic acid]
